Data: a melting point compilation (Tetko et al.; mined from patent text by program, amines drawn as free bases though some values may be those of a salt)

| melting point [°C] | Structure (SMILES) |
| --- | --- |
| 159 to 161 | CCN1C(=O)C(C)(C)C(=O)N(C)c2cc(CN(CCn3ccc4oc(C)cc4c3=O)Cc3ccccc3CO)ccc21 |
| 178 to 180 | O=C(Cc1c(C(=O)c2ccccc2)[nH]c2cc(Cl)ccc12)NCCO |
| 66 to 69 | O=C(NCCO)/C(=C/c1ccc(OC2CC2)cc1)NC(=O)c1ccc(OCCc2ccc(Cl)cc2)cc1 |
| 40 to 42 | CN(CCCSCCCC(F)(F)C(F)(F)F)CCOc1ccc(C2=C(c3ccccc3)CCCc3cc(O)ccc32)cc1 |
| 240 | Cc1ccc(S(=O)(=O)OCCN2C(=O)c3cccc4cc5ccccc5c(c34)C2=O)cc1 |
| 113 to 115 | CCC(CC)NCc1cnc2c(C)c(NC(=O)c3ccc(OC[C@@H]4CCCO4)cc3)ccc2c1 |
| 153 to 154 | CN(C[PH](=O)O)c1cc(Oc2ccc(C(F)(F)F)cc2Cl)ccc1[N+](=O)[O-] |
| 67 to 69 | COC(=O)c1cc(CN=C=S)cc(CN=C=S)c1 |
| 108 to 112 | O=C(O)C1Cc2ccccc2N1S(=O)(=O)c1ccc(-c2cccc(C(F)(F)F)c2)cc1 (stereo unspecified) |
| 112 to 113 | O=C(O)CCc1ccc(O[C@H]2CCc3ccccc32)cc1 |
| 98.8 to 99 | COCOc1ccc(C(=O)OC)c(OCc2ccc(Cl)cc2Cl)c1C |
| 78 to 81 | COc1ccc(C(O)(Cc2ccncc2)c2ccccc2)c2c1OC(C)(C)C2 (stereo unspecified) |
| 110 to 113 | C[C@H](NC(=O)CC(Br)C(=O)c1ccc(Br)cc1)C(=O)O (stereo partly specified) |
| 74.1 to 78.1 | CCCCCN(CCC12CC3CC(CC(C3)C1)C2)C(=O)NCCCCc1ccncc1 |
| 232 to 233 | O=C(Cc1ccc(OCc2ccccc2F)cc1)NC1(C(=O)O)Cc2ccc(-c3ccc(Cl)cc3)cc2C1 (stereo unspecified) |
| > 260 | O=C1CCC2=C1C(c1ccc(Cl)c(Cl)c1)C1=C(CCS1)N2 (stereo unspecified) |
| 139 to 140 | CC1(C)CC(=NO)CC(=NO)C1C#N (stereo unspecified) |
| 192 to 193 | Cc1nc(Cc2ccc(NC(=O)/C=C/c3cnn(C)c3-c3ccc(F)cc3)cc2)cs1 |
| 150 to 151 | O=Cc1cn(C2CCCCC2)nc1-c1ccc([N+](=O)[O-])o1 |
| 177 to 178 | Cn1c(=O)c(Oc2ccc(F)cc2F)cc2cnc(S(C)(=O)=O)nc21 |
| 230 to 233 | Cc1nnc2nc(-c3cccc(C(F)(F)F)c3)cnn12 |
| 97 to 98 | O=C1C=C(Br)C(=CBr)O1 |
| 103 | Nc1cc(-c2ccccc2)cc2ccccc12 |
| 190 to 192 | CC(C)(C)OC(=O)N[C@@H](CC(N)=O)C(N)=O |
| 87 to 94 | CC1C(=O)N(CC(=O)CCc2ccccc2)C1S(=O)Cc1ccccc1 (stereo unspecified) |

| melting point [°C] | Structure (SMILES) |
| --- | --- |
| 50 to 51 | Cn1nc(-c2cc(Cl)c(F)cc2F)c(Cl)c1C(F)(F)F |
| 187 to 189 | CCC1(c2ccccc2)Cc2cc(OCC(=O)O)c(Cl)c(Cl)c2C1=O (stereo unspecified) |
| 57 to 58.5 | CCOC(=O)C(Oc1ccc2ccccc2c1)C(=O)OCC |
| 106 to 108 | CC(=O)c1ccc2c(c1)C(C)(C)c1cccnc1O2 |
| 193 to 195 | O=C1C2=C(CCCC2)C(=O)N1c1c(F)cc(Cl)c2c1CC(CO)O2 (stereo unspecified) |
| 195 to 198 | COc1ccc2c(c1)CCC(NCC(=O)O)C2 (stereo unspecified) |
| 144 to 146 | CC(=O)c1ccc(OCCOc2ccc3ccccc3c2)cc1F |
| 154 to 155 | O=C(CCCCNC(=O)c1cn2c3c(cccc13)CCC2)NOCc1ccccc1 |
| 208 to 210 | COc1ccc(NC(=O)c2ccc(OC)c(C34CC5CC(CC(C5)C3)C4)c2)c([N+](=O)[O-])c1 |
| 386 to 388 | Fc1ccc(-c2nc(S)[nH]c2-c2ccncc2)cc1 |
| 190 to 191 | NC1CSC(c2ccsc2)CNC1=O (stereo unspecified) |
| 227 | O=c1ccc2cc(C(c3ccccc3)n3ccnc3)ccc2[nH]1 (stereo unspecified) |
| 214 to 215 | O=c1[nH]c2ccccc2c(=O)n1S(=O)(=O)c1ccc(Cl)cc1 |
| 182 to 184 | COc1cc2c(Nc3ccc(Sc4ccccn4)cc3)c(C#N)cnc2cc1N1CCC(N2CCCC2)CC1 |
| 202 to 206 | COCOc1c(C(C)(C)C)cc(C=[N+]([O-])C(C)(C)C)cc1C(C)(C)C |
| 152 to 154 | C=CCSc1cc(C(=O)O)cc(N)c1C(=O)c1ccccc1 |
| 65 to 67 | Cc1cccnc1N[C@H]1CC[C@H](C2CCCCC2)CC1 |
| 178 to 180 | O=S(=O)(c1cccc2ccccc12)c1n[nH]c2ccc(OC3CCCNC3)cc12 (stereo unspecified) |
| 87.5 to 89.5 | Cc1c([N+](=O)[O-])ccc(Cl)c1C#N |
| 100 to 104 | O=C1C(CCO)Oc2ccccc2N1Cc1cccc2ccccc12 (stereo unspecified) |
| 164 to 166 | Cc1nc(N2CCN(C)CC2)nc(N)c1-c1cc(Cl)cc(Cl)c1 |
| 182 | C=C(C)c1ccc(-c2ccc(C(=C)C)cc2)cc1 |
| 225 to 227 | O=C(NC(=O)c1c(Cl)cccc1Cl)Nc1cc(-c2ccc(-c3ccccc3)cc2)on1 |
| 66 | CC(=O)C(=CN(C)C)c1ccccc1 |
| 70 to 75 | O=C1c2cc(Cl)ccc2OC(CCCCl)N1O (stereo unspecified) |

| melting point [°C] | Structure (SMILES) |
| --- | --- |
| 105 to 106 | CC(C)(C)C(=O)Nc1cc(Cl)c(Cl)cn1 |
| 194 to 195 | Cc1ccc(N(C)S(=O)(=O)c2cccs2)c2[nH]c(-c3ncc(CCl)s3)cc12 |
| 54 to 56 | CCCCCC#CCC#CCC#CCC#CCO |
| 102 to 104 | CCCCCCCCCCCC1Cc2cc(C(=O)O)ccc2N1C (racemic) |
| 168 to 172 | N#CC1CN1C(=O)NC(=O)c1ccc(-c2ccccc2)cc1 (stereo unspecified) |
| 133 to 141 | COC(=O)CCCc1cc2nc(Cl)ccc2n1S(=O)(=O)c1ccc2ncccc2c1 |
| 178 to 179 | O=C1OC(c2ccc(Cl)cc2)C(Cn2cncn2)(c2ccc(Cl)cc2Cl)O1 (stereo unspecified) |
| 148 to 150 | CC12CCC3c4ccc(OC(=O)c5cccnc5)cc4CCC3C1CCC2OC(=O)c1cccnc1 (stereo unspecified) |
| 273 to 276 | CC(C)(C(=O)O)n1c(=O)[nH]c2cc3ccccc3cc2c1=O |
| 232 | O=C(NC1CCC(c2cc(Nc3cccc(C(F)(F)F)c3)n[nH]2)C1)C1CCC1 (stereo unspecified) |
| 136 to 138 | CC(=O)OC(C(=O)c1cccnc1)c1cccnc1 (stereo unspecified) |
| 149 to 150 | CN1CCC(CC2CN=C(c3cc4cccc(N(C)S(=O)(=O)c5cccs5)c4[nH]3)S2)=N1 (stereo unspecified) |
| 211 to 213 | COC(=O)c1cn(Cc2ccccc2)c2ccc(C3CCCCC3)cc2c1=O |
| 71 to 73 | CCOC(=O)C(=CNC1CC1)C(=O)c1cc(Cl)c(F)c(F)c1F |
| 114 to 115 | CCOC(=O)c1ccc(C#CC(=O)Nc2ccccc2)cc1 |
| 117 to 118 | Cc1ccc(-c2nc(-c3ccc(C)cc3C)nc(-c3ccc(OCCCCCCO)cc3O)n2)c(C)c1 |
| 276 to 279 | O=c1c2c(Cc3ccccc3)n[nH]c2c2cccnc2n1-c1cccc([N+](=O)[O-])c1 |
| 360 | N#Cc1ccc2[nH]c3ccc(C#N)cc3c2c1 |
| 204 to 205 | CNc1ncc2cc(-c3ccccc3)c(NC)nc2n1 |
| 63 to 66 | CC(C)(C(Cl)c1ccc2c(c1)OCO2)[N+](=O)[O-] (stereo unspecified) |
| 139 to 140 | Cc1cc(F)ccc1OC1CC(C#CC(C)N(O)C(N)=O)C1 (single isomer, unassigned; (+)) |
| 76.5 to 77.5 | CCOC(=O)CCSc1nnsc1-c1ccc(F)cc1 |
| 154 to 158 | COc1ccc(S(=O)(=O)N(C(=O)c2snc(Cl)c2Cl)c2ccc(Cl)cc2)cc1 |
| 131 to 133 | Cc1c(SCc2cccs2)ccnc1CSc1nc2ccccc2[nH]1 |
| > 250 | CC(C)n1nc(-c2sc(NC(=O)c3ccc(Cn4ccnc4)cc3)nc2-c2ccccc2)ccc1=O |

| melting point [°C] | Structure (SMILES) |
| --- | --- |
| 63 | CC1(C)Oc2ccc(C#N)cc2[C@H](N(Cc2ccco2)c2ncco2)[C@H]1O |
| 187 to 188 | COc1ccc2cnc(Nc3ccccc3)nc2c1C1CCCC1 |
| 162 to 164 | C=CCNC(=O)c1ccc(-c2ccc3nnn(Cc4ccc5ncccc5c4)c3n2)cc1F |
| 338 to 340 | Cc1ncc(-c2ccc3[nH]c4c(cc(-c5ccc(Cl)cc5Cl)c(=O)n4C)c3c2)o1 |
| 122 | COC(=O)CC1c2cc(N(C)C)ccc2N(C(C)=O)C1C (stereo unspecified) |
| 50 to 52 | COCCOc1nc(Cl)ncc1Cc1ccc(C)nc1 |
| 115 | CCCN(CCCCNC(=O)N1CC=C(c2ccccc2)CC1)C1CCc2ncsc2C1 (stereo unspecified) |
| 190 to 193 | COc1c(Cl)ccc(-c2cc(N)c(Cl)c(C(=O)NOC(C)C)n2)c1F |
| 118 to 119 | CCCn1nc(OCc2ccc3ccccc3n2)cc1COc1c(CC)cccc1CC(=O)O |
| 219 to 220 | O=C(NC(=O)c1ccccc1Cl)Nc1cnc(C(F)(F)F)cn1 |
| 175 to 176 | ClCc1coc(C=C2c3ccccc3-c3ccccc32)n1 |
| > 260 | O=C1COCC2=C1C(c1ccc(F)c(I)c1)C1=C(CCS1(=O)=O)N2 (stereo unspecified) |
| 94.5 to 95.3 | C=CCC(Cc1ccc(OC)c(OCCc2ccccc2)c1)NC(=O)OC(C)(C)C (stereo unspecified) |
| 140 to 142 | C#Cc1cnc2sc(SCCCCCCC)nn2c1=O |
| 74 to 78 | CC(C)(C)OC(=O)N=C(N)N(CCc1ccc(OCCC2Oc3ccccc3N(Cc3cccc(Cl)c3)C2=O)cc1)C(=O)OC(C)(C)C (stereo unspecified) |
| 70 to 71 | COc1ccc(Br)cc1OCc1ccccc1 |
| 98 to 102 | OCCc1c[nH]c2ccc(O)cc12 |
| 187 to 191 | CN(O)C(=N)c1nn(-c2c(Cl)cc(C(F)(F)F)cc2Cl)c(N)c1S(=O)C(F)(F)F (stereo unspecified) |
| 268 to 275 | CC(=O)Nc1ccc(-c2c[nH]c(=O)cn2)cc1 |
| 195 to 197 | Fc1cc2cc3n(c2cc1Cl)CCNC3 |
| 88 to 89 | CN(C)S(=O)(=O)Oc1ccccc1S(N)(=O)=O |
| 218 | O=C1NC(=Cc2ccccc2)C(NCc2ccccc2)=C1[N+](=O)[O-] |

| Structure (SMILES) | melting point [°C] |
| --- | --- |
| CC(C)(C)P(=O)(O)OCCCN | 253 to 255 |
| CN(C)C1CCc2[nH]c3cc(OCc4ccccc4)ccc3c2C1 (stereo unspecified) | 237 to 239 |
| CCN1C(=O)CN=C(c2ccccc2F)c2cc(C(C)O)ccc21 (stereo unspecified) | 48 to 50 |
| CCCCN(CCCC)Cc1nc(-c2ncn3c2CN(C)C(=O)c2cc(F)ccc2-3)no1 | 137 to 140 |
